Test results as given in article PMC4660977 (Molecular pharmaceutics, 2015).

Columns and labels:
[1] = target: GLP-1R (Homo sapiens, UniProt P43220); test: GLP-1R agonism, AKAR3 FRET reporter assay in HEK-GLP-1R cells; assay type: cell-based; details: undigested
[2] = target: T1, meprin β (Homo sapiens, UniProt Q16820); test: Meprin β digestion, remaining function at GLP-1R; assay type: in vitro ADME; details: meprin β concentrations greater than 3 µg/mL; 30 min, 100 nM; AKAR3 FRET
T1 sequence (Q16820 62-701): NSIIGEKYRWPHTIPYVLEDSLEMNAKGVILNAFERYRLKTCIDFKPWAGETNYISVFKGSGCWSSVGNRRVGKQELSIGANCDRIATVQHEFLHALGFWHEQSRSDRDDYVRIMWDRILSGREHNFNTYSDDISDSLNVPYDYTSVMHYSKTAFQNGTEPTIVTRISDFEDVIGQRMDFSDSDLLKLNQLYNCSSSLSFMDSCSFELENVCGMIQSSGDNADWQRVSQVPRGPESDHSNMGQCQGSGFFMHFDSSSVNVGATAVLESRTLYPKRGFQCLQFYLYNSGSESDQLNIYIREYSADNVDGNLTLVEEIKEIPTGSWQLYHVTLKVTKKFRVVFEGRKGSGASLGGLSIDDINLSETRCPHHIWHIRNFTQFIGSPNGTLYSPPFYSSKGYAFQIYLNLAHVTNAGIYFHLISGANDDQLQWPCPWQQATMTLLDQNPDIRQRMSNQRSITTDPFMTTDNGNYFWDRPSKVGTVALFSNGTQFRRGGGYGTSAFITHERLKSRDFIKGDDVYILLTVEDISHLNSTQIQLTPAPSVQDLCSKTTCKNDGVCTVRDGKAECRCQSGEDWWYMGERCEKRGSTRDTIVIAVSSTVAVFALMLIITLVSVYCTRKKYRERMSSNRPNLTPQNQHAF

[3] = target: intrinsic factor (IF) (human) (UniProt P27352); test: radioligand binding
Sequence of intrinsic factor (IF) (human) (P27352 19-417): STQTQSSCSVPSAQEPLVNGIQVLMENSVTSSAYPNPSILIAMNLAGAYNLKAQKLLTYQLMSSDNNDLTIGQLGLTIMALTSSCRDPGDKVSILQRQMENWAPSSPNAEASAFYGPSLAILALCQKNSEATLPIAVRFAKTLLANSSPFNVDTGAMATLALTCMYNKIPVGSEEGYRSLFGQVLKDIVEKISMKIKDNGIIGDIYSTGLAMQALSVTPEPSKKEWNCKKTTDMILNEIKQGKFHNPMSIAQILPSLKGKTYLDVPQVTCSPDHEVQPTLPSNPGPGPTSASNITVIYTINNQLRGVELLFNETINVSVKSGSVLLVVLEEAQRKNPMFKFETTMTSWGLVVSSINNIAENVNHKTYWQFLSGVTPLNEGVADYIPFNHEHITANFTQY

[4] = target: glucagon-like peptide-1 receptor (GLP-1R) (UniProt P43220)
Sequence of glucagon-like peptide-1 receptor (GLP-1R) (P43220 24-463): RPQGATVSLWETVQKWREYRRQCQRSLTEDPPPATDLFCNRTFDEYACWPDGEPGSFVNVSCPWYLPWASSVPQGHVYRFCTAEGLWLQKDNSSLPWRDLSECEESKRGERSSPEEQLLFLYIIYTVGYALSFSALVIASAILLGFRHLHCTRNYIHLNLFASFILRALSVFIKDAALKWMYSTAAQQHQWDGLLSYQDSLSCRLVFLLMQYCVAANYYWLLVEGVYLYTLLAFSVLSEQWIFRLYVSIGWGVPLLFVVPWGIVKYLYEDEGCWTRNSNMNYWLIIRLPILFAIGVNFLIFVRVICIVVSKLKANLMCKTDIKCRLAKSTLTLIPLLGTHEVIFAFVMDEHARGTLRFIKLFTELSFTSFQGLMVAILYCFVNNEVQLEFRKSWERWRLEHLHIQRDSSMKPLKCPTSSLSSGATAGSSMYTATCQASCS

Sequence of GLP-1R (P43220 24-463): as above

(AzidoK12)-Ex-4 [Compound 1]
% change in FRET at 100 nM [1]: −12 ± 0.01% | function after meprin β digestion [2]: No function

B12-Ex-4 conjugate (4) (from UniProt P26349 48-87) (peptide)
IF binding (constant not named) [3]: 6.8 nM

IF-B12-Ex-4 complex (IF-4) (from UniProt P27352 19-417)
% change in FRET at 100 nM (AKAR3 in HEK-GLP-1R cells) [4]: -12%
